biological target: T1, Lanosterol synthase (Rattus norvegicus, UniProt P48450); assay: Inhibitory activity against Oxidosqualene-lanosterol cyclase enzyme obtained from rat liver; d = in a microsomal assay fails to inhibit OSC (Oxidosqualene cyclase); format: microsomes, Microsome; settings: not given
T1 sequence (P48450 whole entry): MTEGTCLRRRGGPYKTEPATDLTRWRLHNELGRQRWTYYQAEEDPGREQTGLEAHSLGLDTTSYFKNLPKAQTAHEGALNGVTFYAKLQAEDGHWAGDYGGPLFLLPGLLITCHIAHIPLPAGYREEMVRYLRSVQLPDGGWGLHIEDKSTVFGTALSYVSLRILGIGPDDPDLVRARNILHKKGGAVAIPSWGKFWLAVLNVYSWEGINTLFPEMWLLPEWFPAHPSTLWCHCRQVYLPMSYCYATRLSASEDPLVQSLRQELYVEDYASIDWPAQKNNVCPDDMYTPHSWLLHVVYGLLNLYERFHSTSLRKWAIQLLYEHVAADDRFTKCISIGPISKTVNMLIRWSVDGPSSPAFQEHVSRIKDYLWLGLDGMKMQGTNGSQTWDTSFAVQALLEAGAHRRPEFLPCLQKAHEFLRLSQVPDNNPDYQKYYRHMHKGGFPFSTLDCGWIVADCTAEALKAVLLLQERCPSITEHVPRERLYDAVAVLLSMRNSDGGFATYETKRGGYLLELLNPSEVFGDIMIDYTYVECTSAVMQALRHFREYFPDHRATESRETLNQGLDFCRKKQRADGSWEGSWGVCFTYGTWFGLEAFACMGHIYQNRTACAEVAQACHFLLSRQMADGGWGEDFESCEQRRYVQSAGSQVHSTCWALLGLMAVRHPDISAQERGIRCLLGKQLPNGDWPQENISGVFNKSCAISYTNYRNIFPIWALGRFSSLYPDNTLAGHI

Compound	IC50
C[C@@H]1[C@@H](O)CC[C@]2(C)CNCC[C@@H]12	No inhibition

tested on: HepG2; assay: Compound was tested for inhibition of cholesterol biosynthesis in HepG2 cells from [14C]- acetate; format: functional, cell-based; settings: Homo sapiens

Compound	IC50
CCCCCCCCCCCC[S+]([O-])N1CC[C@H]2[C@H](C)[C@@H](O)CC[C@]2(C)C1 (stereo not given in full)	2.8 µM
CCCCCCCCCCCCS(=O)(=O)N1CC[C@H]2[C@H](C)[C@@H](O)CC[C@]2(C)C1	52 µM
CCCCCCCCCCCC(=S)N1CC[C@H]2[C@H](C)[C@@H](O)CC[C@]2(C)C1	2 µM
CCCCCCCCCCCC(=O)N1CC[C@H]2[C@H](C)[C@@H](O)CC[C@]2(C)C1	0.7 µM
CC(C)CCCC(C)CCCC(C)N1CC[C@H]2[C@H](C)[C@@H](O)CC[C@]2(C)C1 (stereo not given in full)	0.07 µM
CCCCCCCCCCCCN1CC[C@H]2[C@H](C)[C@@H](O)CC[C@]2(C)C1	0.01 µM
CC1(C)[C@@H](O)CC[C@]2(C)CCCC[C@@H]12	28 µM
CC(=O)N1CC[C@H]2[C@H](C)[C@@H](O)CC[C@]2(C)C1	> 100 µM
C[C@@H]1[C@@H](O)CC[C@]2(C)CNCC[C@@H]12	19 µM
